Consider 13 molecules from patent US10106782B2, “High-titer HCV full-length genotype 2B infectious cell culture systems and applications thereof” (Hvidovre Hospital, priority 2013, dated 2018).

The subject of series [1] is genotype 2b strain J8 (5th passage J8cc). The series is described as follows: Antiviral treatment of HCV infected Huh7.5 cultures, high throughput assay, virus J8. It is filed as cell-based, hepatitis C virus. To be noted: for inhibition of virus (concentration-response): J8(2b) in Huh7.5 cells, non-cytotoxic drug concentrations. How it is done: (§1) HCV infected cultures were treated with NS3 Protease, NS5A, and NS5B polymerase inhibitors (purchased from Acme Bioscience) in a high throughput assay. Immunostaining of fixed 96-well plates was performed using anti-core C7- and anti-NS5A 9E10 at dilutions 1/450 and 1/1000, respectively.
(§2) Concentration-response curves and EC50 values were calculated. The non-cytotoxic dose ranges for all drugs were determined with a cytotoxicity assay (CellTiter 96 AQueous One Solution Cell Proliferation Assay, Promega).
(§3) HCV genetic divergence influences the sensitivity to lead direct acting antivirals. Our developed full-length culture systems permit the study of frontline HCV DAAs in the context of the complete HCV life cycle. Thus, we determined the efficacy of DAAs targeting different viral proteins against genotype 1a (strain TN), 2a (strain J6 and recombinant J6core-NS2/JFH18, referred to as JFH1, since it has the JFH1 protease, NS5A and NS5B), and 2b (strains DH8, J8, and DH10). For 2b viruses we used 3rd passage DH8_LSG, 5th passage J8cc, and 3rd passage DH10_LSG (FIGS. 6-10).

For series [2], the system named is genotype 1a (strain TN) full-length virus. The experiment in a line: Antiviral treatment of HCV infected Huh7.5 cultures, high throughput assay, virus TN. To be noted: for inhibition of virus (concentration-response): TN(1a) in Huh7.5 cells, non-cytotoxic drug concentrations; for EC50 / sensitivity of virus, stated in words: TN(1a), numbers only in FIG. 11. In kind it is cell-based, hepatitis C virus. How it is done:
as §1, §2, §3

Series [3] concerns 2a recombinant J6core-NS2/JFH1, referred to as JFH1. The series is described as follows: Antiviral treatment of HCV infected Huh7.5 cultures, high throughput assay, virus JFH1. It is filed as cell-based, hepatitis C virus. The note with it: for inhibition of virus (concentration-response): JFH1(2a) in Huh7.5 cells, non-cytotoxic drug concentrations. The protocol:
as §1, §2, §3

The test system of series [4] is genotype 2a (strain J6) full-length virus. The series is described as follows: Antiviral treatment of HCV infected Huh7.5 cultures, high throughput assay, virus J6. It is filed as cell-based, hepatitis C virus. To be noted: for inhibition of virus (concentration-response): J6(2a) in Huh7.5 cells, non-cytotoxic drug concentrations; for EC50 / sensitivity of virus, stated in words: J6(2a), numbers only in FIG. 11. The protocol:
as §1, §2, §3

In series [5] the test system is genotype 2b strain DH8 (3rd passage DH8_LSG). The experiment in a line: Antiviral treatment of HCV infected Huh7.5 cultures, high throughput assay, virus DH8. In kind it is cell-based, hepatitis C virus. To be noted: DH8(2b) in Huh7.5 cells; non-cytotoxic drug concentrations. The protocol: as §1, §2, §3
The test system of series [6] is genotype 2b strain DH10 (3rd passage DH10_LSG). The experiment in a line: Antiviral treatment of HCV infected Huh7.5 cultures, high throughput assay, virus DH10. It is filed as cell-based, hepatitis C virus. To be noted: DH10(2b) in Huh7.5 cells; non-cytotoxic drug concentrations. How it is done:
as §1, §2, §3

The test system of series [7] is Huh7.5 cells. The experiment in a line: Transfection of Huh7.5 cells with RNA transcripts of full-length HCV recombinants. It is filed as cell-based. To be noted: for HCV infectivity titers / HCV positive cells detected: after transfection; for spread of infection (≥80% HCV-antigen positive cells): day after transfection. The protocol:
(§4) Transfection and passage of recombinant full-length HCV in Huh7.5 cells. Transfections with RNA transcripts were performed as reported. For viral passage, cell free supernatants were incubated with […] Huh7.5 cells overnight. Cultures were split every 2-3 days and progression of infection was monitored by immunostaining on cells seeded in slides and co-stained with primary antibodies anti-core C7-50 (Enzo Life Sciences) and anti-NS5A 9E108, at dilution 1/25010. Infectivity titers expressed as Log 10 Focus Forming Units (FFU)/mL were determined as described. To improve staining, we used a mixture of anti-core C7- and anti-NS5A 9E10 at dilutions 1/450 and 1/1000, respectively. HCV RNA titers (IU/mL) on passage supernatants with peak infectivity titers were determined as previously described.

Series [8] relates to Huh7.5 cells. The experiment in a line: Viral passage of recombinant full-length HCV to naive Huh7.5 cells. In kind it is cell-based. The protocol:
as §4

“Also recorded” adds a separate entry of the source.

For the molecule `COc1ccc2c(O[C@@H]3C[C@H]4C(=O)N[C@]5(C(=O)NS(=O)(=O)C6CC6)C[C@H]5/C=C\CCCCN(C)C(=O)[C@@H]4C3)cc(-c3nc(C(C)C)cs3)nc2c1C` [Simeprevir], the “EC50 / sensitivity of virus, stated in words” value (shortened to “EC50 / sensitivity of virus”) in series [1] (J8(2b), numbers only in FIG. 11) is “lower EC50”.
Consider `CC(C)(C)C#Cc1cc(N(C(=O)[C@H]2CC[C@H](C)CC2)[C@H]2CC[C@H](O)CC2)c(C(=O)O)s1` [VX-222], for which the “inhibition of virus (concentration-response)” value (“inhibition of virus” for short) in series [2] is “inhibited TN(1a) in a dose dependent manner”; in series [3], “no or very limited inhibition; also recorded: not inhibited”; in series [4], “no or very limited inhibition; also recorded: not inhibited”; in series [5] it was “no or very limited inhibition; also recorded: not inhibited”; in series [1], “no or very limited inhibition; also recorded: not inhibited”; in series [6], “no or very limited inhibition; also recorded: not inhibited”. The “EC50 / sensitivity of virus” value in series [2] is “most potent inhibitor”.
As to `CC(C)C(=O)OC[C@H]1O[C@@H](n2ccc(N)nc2=O)[C@](C)(F)[C@@H]1OC(=O)C(C)C` [Mericitabine], the “inhibition of virus” value was “inhibited 1a, 2a, and 2b viruses in a dose-dependent manner” in series [2]; “inhibited 1a, 2a, and 2b viruses in a dose-dependent manner” in series [3]; “inhibited 1a, 2a, and 2b viruses in a dose-dependent manner” in series [4]; “inhibited 1a, 2a, and 2b viruses in a dose-dependent manner” in series [5]; “inhibited 1a, 2a, and 2b viruses in a dose-dependent manner” in series [1]; “inhibited 1a, 2a, and 2b viruses in a dose-dependent manner” in series [6]. Moreover, the “EC50 / sensitivity of virus” value in series [4] is on record as “most sensitive virus”.
With “DH8_LSG/L758S/A1790T/V1951A/I2439T: DH8 full-length recombinant named DH8cc, SEQ ID NO 8, KF420336”, the HCV infectivity titers was determined as 4.1 Log 10 FFU/mL in series [7], 4.4 Log 10 FFU/mL in series [8] (1st passage) and 4.3 Log 10 FFU/mL in series [8] (2nd passage). Besides, the “spread of infection (≥80% HCV-antigen positive cells)” value in series [7] came to 6 days.
On to `CC(C)OC(=O)[C@H](C)N[P@](=O)(OC[C@H]1O[C@@H](n2ccc(=O)[nH]c2=O)[C@](C)(F)[C@@H]1O)Oc1ccccc1` [Sofosbuvir], for which the “inhibition of virus” value was “inhibited 1a, 2a, and 2b viruses in a dose-dependent manner” in series [2]; “inhibited 1a, 2a, and 2b viruses in a dose-dependent manner” in series [3]; “inhibited 1a, 2a, and 2b viruses in a dose-dependent manner” in series [4]; “inhibited 1a, 2a, and 2b viruses in a dose-dependent manner” in series [5]; “inhibited 1a, 2a, and 2b viruses in a dose-dependent manner” in series [1]; “inhibited 1a, 2a, and 2b viruses in a dose-dependent manner” in series [6]. In addition, in series [4], the “EC50 / sensitivity of virus” value is “most sensitive virus”.
For `CCc1cc(CC[C@]2(C3CCCC3)CC(O)=C(Cc3nc4nc(C)cc(C)n4n3)C(=O)O2)cc(CC)n1` [Filibuvir], the “inhibition of virus” value was “inhibited TN(1a) in a dose dependent manner” in series [2]; “no or very limited inhibition; also recorded: not inhibited” in series [3]; “no or very limited inhibition; also recorded: not inhibited” in series [4]; “no or very limited inhibition; also recorded: not inhibited” in series [5]; “no or very limited inhibition; also recorded: not inhibited” in series [1]; “no or very limited inhibition; also recorded: not inhibited” in series [6].
In the case of “DH8_LSG: DH8CF containing LSG mutations F1468L/A1676S/D3001G, SEQ ID NO:2”, in series [7], the HCV infectivity titers is on record as 3.1-3.9 Log 10 FFU/mL, the “HCV positive cells detected” value was no less than 1 days and the “spread of infection (≥80% HCV-antigen positive cells)” value fell in the range of 36 to 53 days. Moreover, the HCV infectivity titers in series [8] (1st passage) is reported as 3.1-4.2 Log 10 FFU/mL. Also, in series [8] (1st viral passage), the spread of infection lay within 5 to 8 days. Besides, in series [8] (3rd passage of transfection 1 culture A), the HCV infectivity titers is 4.7 Log 10 FFU/mL.
Regarding “DH8CF: full-length HCV genotype 2b consensus clone of strain DH8, SEQ ID NO 1, KF420335”, in series [7], the “HCV positive cells detected” value is “No HCV positive cells were detected”.
With “DH8_LSG/L884P/V1951A/I2440T/L3021F: efficient full-length infectious DH8 recombinant, SEQ ID NO 7, KF420337”, in series [7], the HCV infectivity titers came to 3.8 Log 10 FFU/mL and the “spread of infection (≥80% HCV-antigen positive cells)” value amounted to 6 days. Besides, the HCV infectivity titers in series [8] (2nd passage) amounted to 3.9 Log 10 FFU/mL.
Turning to “J8_LSG/L758S/A1790T/V1951A/I2440T: efficient J8 virus with authentic NS3 protease, SEQ ID NO 15, KF420339”, in series [7], the HCV infectivity titers amounted to 3.8 Log 10 FFU/mL and the “spread of infection (≥80% HCV-antigen positive cells)” value is 5 days.
On to `C=C[C@@H]1C[C@]1(NC(=O)[C@@H]1C[C@@H]2CN1C(=O)[C@H](C(C)(C)C)NC(=O)O[C@@H]1C[C@H]1CCCCCc1nc3ccc(OC)cc3nc1O2)C(=O)NS(=O)(=O)C1CC1` [MK-5172], for which the “EC50 / sensitivity of virus” value was “most sensitive viruses” in series [2] and “most sensitive viruses” in series [3] (JFH1(2a), numbers only in FIG. 11).
As for `Cn1c(C2(NC(=O)c3ccc4c(C5CCCC5)c(-c5ncc(Br)cn5)n(C)c4c3)CCC2)nc2ccc(/C=C/C(=O)O)cc21` [BI207127], the “inhibition of virus” value in series [2], in series [3], in series [4], in series [5], in series [1] and in series [6] was “inhibit all viruses in a dose dependent manner” throughout. The “EC50 / sensitivity of virus” value in series [2] is recorded as “most sensitive virus”.
With “J8cc/M292L/L612M/G1154A/N1217Y/Q1763R/I2440T: J8 cell culture, high titer recombinant, SEQ ID NO 14, KF420338”, in series [7], the HCV infectivity titers came out at 4.7 Log 10 FFU/mL and the “spread of infection (≥80% HCV-antigen positive cells)” value was 3 days.
